Molecular target: T1, human plasma protein factor Xa (Homo sapiens, UniProt P00742)
T1 construct: measure proteolytic activity of the enzyme (factor Xa); purchased Haematologic Technologies (Essex Junction, Vt.); host or cells: human plasma
Test: Factor Xa IC50 determination (cleavage of chromogenic substrate S-2765)
Assay type: biochemical
Conditions: fXa 1 nM, S-2765 100 μM, Tris buffered saline pH 7.4, room temperature
How it was run: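 Human plasma factor Xa (1 nM) preincubated 5 min at room temperature with inhibitor (0.01 nM–10 μM final) in Tris-buffered saline pH 7.4 with CaCl2, BSA and 5% DMSO. S-2765 added at 100 μM; pNA release at 405 nm over 2 min; initial velocities fitted to four-parameter equation for IC50, duplicates.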

T1 sequence (P00742 235-488 limits assumed): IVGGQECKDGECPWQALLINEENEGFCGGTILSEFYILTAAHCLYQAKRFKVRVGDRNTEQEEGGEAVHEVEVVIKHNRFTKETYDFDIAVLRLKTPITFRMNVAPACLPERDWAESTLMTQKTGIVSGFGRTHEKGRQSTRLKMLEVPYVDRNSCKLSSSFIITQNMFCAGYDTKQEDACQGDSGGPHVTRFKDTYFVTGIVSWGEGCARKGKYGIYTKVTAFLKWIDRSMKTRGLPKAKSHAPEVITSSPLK
T1 sequence (P00742 41-179 partner limits assumed): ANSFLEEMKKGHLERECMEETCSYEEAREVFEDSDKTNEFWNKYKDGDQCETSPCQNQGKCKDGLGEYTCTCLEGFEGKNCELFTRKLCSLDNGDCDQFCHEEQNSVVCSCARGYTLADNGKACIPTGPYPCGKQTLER

IC50 [nM] | Structure (SMILES)
≤ 100 | Cc1ccccc1C(NC(=O)Nc1ccc(Cl)cc1)C(=O)Nc1ccc(C(=O)N2CCCC2)cc1 (stereo not drawn) [Example 94, N-[4-(pyrrolidin-1-ylcarbonyl)phenyl]-2-(2-methylphenyl)-2-(4-chlorophenylaminocarbonylamino)-acetamide]
≤ 100 | Cc1ccccc1C(NC(=O)Nc1ccc(Cl)cc1)C(=O)Nc1ccc(N2CCOCC2=O)cc1 (stereo not drawn) [Example 95, N-[4-(3-oxo-morpholin-4-yl)phenyl]-2-(2-methylphenyl)-2-(4-chlorophenylaminocarbonylamino)-acetamide]
≤ 100 | Cc1ccccc1C(NC(=O)Nc1ccc(Cl)cc1)C(=O)Nc1ccc(N(C)c2ccncc2)cc1 (stereo not drawn) [Example 96, N-[4-(N-methyl-N-pyridin-4-yl-amino)phenyl]-2-(2-methylphenyl)-2-(4-chlorophenylaminocarbonylamino)-acetamide]
≤ 100 | Cc1ccccc1C(NC(=O)Nc1ccc(Cl)cc1)C(=O)Nc1ccc(C(=O)N2CCSC2)cc1 (stereo not drawn) [Example 97, N-[4-(thiazolidin-3-ylcarbonyl)phenyl]-2-(2-methylphenyl)-2-(4-chlorophenylaminocarbonylamino)-acetamide]
≤ 100 | Cc1ccccc1C(NC(=O)Nc1ccc(Cl)cc1)C(=O)Nc1ccc(C(=O)N2CCOC2)cc1 (stereo not drawn) [Example 98, N-[4-(oxazolidin-3-ylcarbonyl)phenyl]-2-(2-methylphenyl)-2-(4-chlorophenylaminocarbonylamino)-acetamide]
≤ 100 | O=C(Nc1ccc(Cl)cc1)NC(C(=O)Nc1ccc(-c2cccc[n+]2[O-])cc1)c1ccccc1Cl (stereo not drawn) [Example 99, N-[4-(N-oxo-pyridin-2-yl)phenyl]-2-(2-chlorophenyl)-2-(4-chlorophenylaminocarbonylamino)-acetamide]
≤ 100 | CN(C)C(=N)c1ccc(NC(=O)C(NC(=O)Nc2ccc(Cl)cc2)c2ccccc2Cl)cc1 (stereo not drawn) [Example 100, N-[4-(dimethylaminoimino)phenyl]-2-(2-chlorophenyl)-2-(4-chlorophenylaminocarbonylamino)-acetamide]
≤ 100 | N=C(c1ccc(NC(=O)C(NC(=O)Nc2ccc(Cl)cc2)c2ccccc2Cl)cc1)N1CCCC1 (stereo not drawn) [Example 101]
≤ 100 | CN1CCCN(c2ccc(NC(=O)C(NC(=O)Nc3ccc(Cl)cc3)c3ccccc3Cl)cc2)CC1 (stereo not drawn) [Example 102, N-[4-(4-methyl-homopiperazinyl)phenyl]-2-(2-chlorophenyl)-2-(4-chlorophenylaminocarbonylamino)-acetamide]
≥ 500 | CC(C)N1CCC(NC(=O)C(NC(=O)Nc2ccc(Cl)cc2)c2ccccc2Cl)CC1 (stereo not drawn) [Example 103, N-(1-isopropylpiperidin-4-yl)-2-(2-chlorophenyl)-2-(4-chlorophenylamino-carbonylamino)-acetamide]
≤ 100 | CN1CCC(N2CCN(C(=O)C(NC(=O)Nc3ccc(Cl)cc3)c3ccccc3Cl)CC2)CC1 (stereo not drawn) [Example 104, N-[4-(1-methylpiperidin-4-yl)piperazin-1-yl]-2-(2-chlorophenyl)-2-(4-chlorophenylaminocarbonylamino)-acetamide]
≤ 100 | O=C(Nc1ccc(Cl)cc1)NC(C(=O)NCC1CCN(c2ccncc2)CC1)c1ccccc1Cl (stereo not drawn) [Example 105, N-[1-(pyridin-4-yl)piperidin-4-yl]methyl-2-(2-chlorophenyl)-2-(4-chlorophenylaminocarbonylamino)-acetamide]
≤ 100 | COc1ccccc1C(NC(=O)Nc1ccc(Cl)cc1)C(=O)Nc1ccc(C2=NCCN2C)cc1 (stereo not drawn) [Example 106, N-[4-(1-methyl-4,5-dihydro-1H-imidazol-2-yl)phenyl]-2-(2-methoxyphenyl)-2-(4-chlorophenylaminocarbonylamino)-acetamide]
≤ 100 | COc1ccccc1C(NC(=O)Nc1ccc(Cl)cc1)C(=O)Nc1ccc(-c2cccc[n+]2[O-])cc1 (stereo not drawn) [Example 107, N-[4-(N-oxo-pyridin-2-yl)phenyl]-2-(2-methoxyphenyl)-2-(4-chlorophenylaminocarbonylamino)-acetamide]
≤ 100 | COc1ccccc1C(NC(=O)Nc1ccc(Cl)cc1)C(=O)NCC1CCN(c2ccncc2)CC1 (stereo not drawn) [Example 108, N-[1-(pyridin-4-yl)piperidin-4-yl]methyl-2-(2-methoxyphenyl)-2-(4-chlorophenylaminocarbonylamino)-acetamide]
≤ 100 | COc1ccccc1C(NC(=O)Nc1ccc(Cl)cc1)C(=O)N1CCN(C2CCN(C)CC2)CC1 (stereo not drawn) [Example 109, N-[4-(1-methylpiperidin-4-yl)piperazin-1-yl]-2-(2-methoxyphenyl)-2-(4-chlorophenylaminocarbonylamino)-acetamide]
≥ 500 | COc1ccccc1C(NC(=O)Nc1ccc(Cl)cc1)C(=O)NC1CCN(C(C)C)CC1 (stereo not drawn) [Example 110, N-(1-isopropylpiperidin-4-yl)-2-(2-methoxyphenyl)-2-(4-chlorophenylamino-carbonylamino)-acetamide]
≤ 100 | COc1ccccc1C(NC(=O)Nc1ccc(Cl)cc1)C(=O)Nc1ccc(N2CCCN(C)CC2)cc1 (stereo not drawn) [Example 111, N-[4-(4-methyl-homopiperazinyl)phenyl]-2-(2-methoxyphenyl)-2-(4-chlorophenylaminocarbonylamino)-acetamide]
≤ 100 | COc1ccccc1C(NC(=O)Nc1ccc(Cl)cc1)C(=O)Nc1ccc(C(=N)N(C)C)cc1 (stereo not drawn) [Example 112, N-[4-(dimethylaminoimino)phenyl]-2-(2-methoxyphenyl)-2-(4-chlorophenylaminocarbonylamino)-acetamide]
≤ 100 | COc1ccccc1C(NC(=O)Nc1ccc(Cl)cc1)C(=O)Nc1ccc(C(=N)N2CCCC2)cc1 (stereo not drawn) [Example 113]
≤ 100 | CN1CCN=C1c1ccc(NC(=O)C(NC(=O)Nc2ccc(Cl)cc2)c2ccccc2I)cc1 (stereo not drawn) [Example 114, N-[4-(1-methyl-4,5-dihydro-1H-imidazol-2-yl)phenyl]-2-(2-iodophenyl)-2-(4-chlorophenylaminocarbonylamino)-acetamide]
≤ 100 | O=C(Nc1ccc(Cl)cc1)NC(C(=O)Nc1ccc(-c2cccc[n+]2[O-])cc1)c1ccccc1I (stereo not drawn) [Example 115, N-[4-(N-oxo-pyridin-2-yl)phenyl]-2-(2-iodophenyl)-2-(4-chlorophenylamino-carbonylamino)-acetamide]
≤ 100 | CN(C)C(=N)c1ccc(NC(=O)C(NC(=O)Nc2ccc(Cl)cc2)c2ccccc2I)cc1 (stereo not drawn) [Example 116, N-[4-(dimethylaminoimino)phenyl]-2-(2-iodophenyl)-2-(4-chlorophenylaminocarbonylamino)-acetamide]
≤ 100 | N=C(c1ccc(NC(=O)C(NC(=O)Nc2ccc(Cl)cc2)c2ccccc2I)cc1)N1CCCC1 (stereo not drawn) [Example 117]
≤ 100 | CN1CCC(N2CCN(C(=O)C(NC(=O)Nc3ccc(Cl)cc3)c3ccccc3I)CC2)CC1 (stereo not drawn) [Example 118]
≤ 100 | CN1CCN=C1c1ccc(NC(=O)C(NC(=O)Nc2ccc(Cl)cc2)c2ccc(Br)cc2)cc1 (stereo not drawn) [Example 119, N-[4-(1-methyl-4,5-dihydro-1H-imidazol-2-yl)phenyl]-2-(4-bromophenyl)-2-(4-chlorophenylaminocarbonylamino)-acetamide]
≤ 100 | CN1CCN=C1c1ccc(NC(=O)C(NC(=O)Nc2ccc(Cl)cc2)c2ccccc2OC(F)(F)F)cc1 (stereo not drawn) [Example 120, N-[4-(1-methyl-4,5-dihydro-1H-imidazol-2-yl)phenyl]-2-(2-trifluoromethoxyphenyl)-2-(4-chlorophenylaminocarbonylamino)-acetamide]

— patent US7678913B2, “Ureas as factor Xa inhibitors” (Portola Pharmaceuticals, Inc., priority 2004, dated 2010)
